Experimental data from US9458194B2, “Compounds useful in the treatment and/or care of the skin and their cosmetic or pharmaceutical compositions” (Lubrizol Advanced Materials, Inc., priority 2013, dated 2016).
Non-standard residues stand in square brackets, D forms with d. *: point of attachment. Palmitoyl = CCCCCCCCCCCCCCCC(=O)*; Orn = NCCC[C@H](N)C(=O)O; Dap = NC[C@H](N)C(=O)O; Dbu = Diaminobutyryl; NHHex = CCCCCCN*

Tests used:
[1] = system: human LOXL1 gene promoter; assay: Luminescence assay of human LOXL1 gene promoter activation (Renilla luciferase); format: cell-based; conditions: 16-24 hours
Method: (§1) The effect of the compounds of the invention on the activity of the fibulin-5 and LOXL1 promoters was studied and compared to the levels of basal expression of the untreated cells (negative control) and with the effect of Interleukin-1β (IL-1β) in the same conditions.
(§2) Cells from an epithelial cell line doubly transfected with fibulin-5 and LOXL1 human promoters in which the luciferase gene is under the regulatory control of said promoters (4×10^4 cells/well) were seeded in a white plate and in a 96-well transparent plate, both treated with polylysine, and were incubated in Dulbecco's Modified Eagle Medium (DMEM-Glutamax™), with 10% of FBS, 1% Penicillin-Streptomycin (P/S), 1 mg/ml of Geneticin® (G418) and […] at 37° C. in at atmosphere with 5% CO2. After the incubation, the cells were incubated for 6 hours at 37° C. in at atmosphere with 5% CO2 with DMEM without serum. Then, this medium was removed and the cells were treated with different compounds at 0.1 mg/ml, 0.5 mg/ml, 1 mg/ml or 2 mg/mL in DMEM/1% FBS for 16-24 hours. As a positive control to activate the fibulin-5 and LOXL1 promoters 10 ng/ml of IL-1β were used and as a negative control untreated cells were used, just with DMEM/1% FBS. The incubations and treatments were carried out in parallel in the white plate and the transparent plate and in triplicate for each condition. After the treatment, the relative light units per second were determined (RLU/s) in the white plate by means of consecutive quantification of the activities of Firefly luciferase (fibulin-5 promoter) and Renilla luciferase (LOXL1 promoter), and the number of total cells/well in the transparent plate by means of staining with Crystal Violet (CV). To determine the Firefly and Renilla luciferase activities the Dual-Glo Luciferase Assay System kit by Promega was used. The cells were briefly lysed and the Firefly luciferase substrate was added. After incubating for 10 min at 25° C., the RLU/s were quantified by luminescence reader (Lumistar-BMG). Then the Firefly signal was extinguished and the Renilla luciferase substrate was added. After incubating for 5 min at 25° C., the RLU/s were quantified by the same luminescence reader. With regard to the determination of the total number of cells by Crystal Violet, the CV dyes the DNA of the cells and the quantity of dye taken by the cells can be measured in an absorbency reader at 630 nm (Multiskan Ascent). The color obtained is directly proportional to the total number of cells per well. The cells were briefly incubated with 0.05% CV plus 4% Formalin for 20 minutes and after several washes with Milli-Q water, the cells were left to dry for 1-2 hours and then 0.1 M of HCl was added for its immediate reading. The RLU/s of the luciferases corresponding to each promoter were normalized by the average of the total number of cells per condition. Three independent assays with 3 measurements per assay were carried out for Ac-L-Asp-L-Val-L-Lys-L-Tyr-OH at 0.1 mg/mL and 1 mg/mL. 1 assay with 3 measurements was carried out for the other compounds and concentrations.
(§3) The increase in the activity of the promoters with regard to the levels of expression of the negative control was determined.

[2] = system: human fibulin-5 gene promoter; assay: Luminescence assay of human fibulin-5 gene promoter activation (Firefly luciferase); format: cell-based; conditions: 16-24 hours
Method: as §1, §2, §3

Row | Substance | Increase in the activity of the human promoter of the LOXL1 gene with regard to the negative control ([1]; 2 mg/mL) [%] | Increase in the activity of the human promoter of the FIBULIN 5 gene with regard to the negative control ([2]; 2 mg/mL) [%] | further results
1 | Ac-L-Glu-L-Val-L-Lys-L-Tyr-OH (Ac-EVKY-OH) | 5.59 | 27.45 | 
2 | Ac-Gly-L-Gln-L-Lys(Ac-Gly-L-Gln)-4-Abz-NH2 |  |  | Increase in the activity of the human promoter of the LOXL1 gene with regard to the negative control ([1]; 0.5 mg/mL): 79%; Increase in the activity of the human promoter of the FIBULIN 5 gene with regard to the negative control ([2]; 0.5 mg/mL): 17%
3 | Ac-L-Asn-L-Thr-L-Lys(Ac-L-Asn-L-Thr)-4-Abz-NH2 |  |  | Increase in the activity of the human promoter of the LOXL1 gene with regard to the negative control ([1]; 0.5 mg/mL): 51%; Increase in the activity of the human promoter of the FIBULIN 5 gene with regard to the negative control ([2]; 0.5 mg/mL): 39%
4 | Ac-L-Asp-L-Val-L-Lys-L-Tyr-NH(n-hexyl) (Ac-DVKY-NHHex; SMILES CCCCCCNC(=O)[C@H](Cc1ccc(O)cc1)NC(=O)[C@H](CCCCN)NC(=O)[C@@H](NC(=O)[C@H](CC(=O)O)NC(C)=O)C(C)C) | 7.54 | 18.11 | 
5 | Palm-L-Asp-L-Val-L-Lys-L-Tyr-OH (Palmitoyl-DVKY-OH; SMILES CCCCCCCCCCCCCCCC(=O)N[C@@H](CC(=O)O)C(=O)N[C@H](C(=O)N[C@@H](CCCCN)C(=O)N[C@@H](Cc1ccc(O)cc1)C(=O)O)C(C)C) | 25.17 | 32.47 | 
6 | Ac-L-Asp-L-Val-L-Dbu-L-Tyr-OH (Ac-DV[Dbu]Y-OH) | 28.10 | 17.08 | 
7 | Palm-L-Asn-L-Ile-L-Orn-L-Trp-NH(n-hexyl) (Palmitoyl-NI[Orn]W-NHHex; SMILES CCCCCCCCCCCCCCCC(=O)N[C@@H](CC(N)=O)C(=O)N[C@H](C(=O)N[C@@H](CCCN)C(=O)N[C@@H](Cc1c[nH]c2ccccc12)C(=O)NCCCCCC)[C@@H](C)CC) |  |  | Increase in the activity of the human promoter of the LOXL1 gene with regard to the negative control ([1]; 1 mg/mL): 18.48%; Increase in the activity of the human promoter of the FIBULIN 5 gene with regard to the negative control ([2]; 1 mg/mL): 43.65%
8 | Ac-L-Asp-L-Leu-L-Lys-L-Tyr-OH (Ac-DLKY-OH) | 14.96 | 15.42 | 
9 | H-L-Asn-L-Leu-L-Lys-L-Tyr-OH (H-NLKY-OH) | 16.67 | 9.69 | 
10 | Ac-L-Asp-L-Val-L-Orn-L-Tyr-OH (Ac-DV[Orn]Y-OH; SMILES CC(=O)N[C@@H](CC(=O)O)C(=O)N[C@H](C(=O)N[C@@H](CCCN)C(=O)N[C@@H](Cc1ccc(O)cc1)C(=O)O)C(C)C) | 28.35 | 44.60 | 
11 | Ac-Asn-L-His-L-Lys(Ac-Asn-L-His)-4-Abz-NH2 |  |  | Increase in the activity of the human promoter of the LOXL1 gene with regard to the negative control ([1]; 0.5 mg/mL): 47%; Increase in the activity of the human promoter of the FIBULIN 5 gene with regard to the negative control ([2]; 0.5 mg/mL): 53%
12 | Ac-L-Glu-L-Val-L-Lys-L-Trp-OH (Ac-EVKW-OH) | 22.22 | 10.92 | 
13 | Ac-L-Asn-L-Ile-L-Lys-L-Tyr-OH (Ac-NIKY-OH) | 9.83 | 12.25 | 
14 | Ac-L-Asp-L-Val-L-Lys-L-Tyr-NH2 (Ac-DVKY-NH2) | 22.87 | 30.26 | 
15 | Ac-L-Asp-L-Met-L-Lys-L-Tyr-OH (Ac-DMKY-OH) | 32.85 | 14.36 | 
16 | Ac-L-Gln-L-Val-L-Lys-L-Tyr-OH (Ac-QVKY-OH) | 22.61 | 19.79 | 
17 | Ac-L-Gln-L-Val-L-Dbu-L-Trp-NH2 (Ac-QV[Dbu]W-NH2) | 68.94 | 26.39 | 
18 | Ac-L-Asn-L-IIe-L-Dpr-L-Tyr-OH (Ac-NI[Dap]Y-OH; SMILES CC[C@H](C)[C@H](NC(=O)[C@H](CC(N)=O)NC(C)=O)C(=O)N[C@@H](CN)C(=O)N[C@@H](Cc1ccc(O)cc1)C(=O)O) | 8.75 | 41.79 | 
19 | H-L-Gln-L-Val-L-Orn-L-Tyr-OH (H-QV[Orn]Y-OH; SMILES CC(C)[C@H](NC(=O)[C@@H](N)CCC(N)=O)C(=O)N[C@@H](CCCN)C(=O)N[C@@H](Cc1ccc(O)cc1)C(=O)O) | 25.84 | 7.04 | 
20 | Ac-L-Asp-L-Ile-L-Lys-L-Tyr-NH(n-hexadecyl) (Ac-DIKY-{NH(n-hexadecyl)}) | 27.08 | 59.33 | 
21 | H-L-Gln-L-Ile-L-Orn-L-Tyr-OH (H-QI[Orn]Y-OH; SMILES CC[C@H](C)[C@H](NC(=O)[C@@H](N)CCC(N)=O)C(=O)N[C@@H](CCCN)C(=O)N[C@@H](Cc1ccc(O)cc1)C(=O)O) | 47.99 | 4.41 | 
22 | Ac-L-Asn-L-Val-L-Dpr-L-Tyr-OH (Ac-NV[Dap]Y-OH; SMILES CC(=O)N[C@@H](CC(N)=O)C(=O)N[C@H](C(=O)N[C@@H](CN)C(=O)N[C@@H](Cc1ccc(O)cc1)C(=O)O)C(C)C) | 3.99 | 35.49 | 
23 | Ac-L-Lys-L-Cit-L-Lys(Ac-L-Lys-L-Cit)-4-Abz-NH2 |  |  | Increase in the activity of the human promoter of the LOXL1 gene with regard to the negative control ([1]; 0.5 mg/mL): 22%; Increase in the activity of the human promoter of the FIBULIN 5 gene with regard to the negative control ([2]; 0.5 mg/mL): 21%
24 | H-L-Asp-L-Val-L-Lys-L-Tyr-OH (H-DVKY-OH) | 21.82 | 41.93 | 
25 | Ac-L-Gln-L-Val-L-Lys-L-Trp-NH2 (Ac-QVKW-NH2) | 18.08 | 38.10 | 
26 | Ac-L-Gln-L-Met-L-Lys-L-Tyr-OH (Ac-QMKY-OH) | 28.48 | 6.05 | 
